Experimental data reported in doi:10.64898/2025.12.30.696991 (bioRxiv, 2026).

Tests used:
Assay in all cases: Antibiotic disc inhibition zone on Mueller-Hinton agar
Conditions in all cases: experiment performed twice
E. coli (TOP10) = assay type: cell-based, Escherichia coli
Experimental: (§1) Susceptible (ATCC 700720) and MDR (ATCC 700408) strains of S. enterica serovar Typhimurium were obtained from American Type Culture Collection (ATCC Manassas, VA) and cultured in nutrient broth (BD Difco, Detroit, MA). Murine macrophage cell line RAW 264.7 (ATCC TIB-71) was maintained in Dulbecco's modified Eagle's medium (DMEM) (GIBCO, Invitrogen, Carlsbad, CA) supplemented with 10% fetal bovine serum (FBS) (GIBCO) and 1% penicillin-streptomycin (P/S) (GIBCO). Cells were cultured at 37°C in a 5% CO2 atmosphere and used up to passage 10 once received from ATCC. Susceptible and MDR activity of S. Typhimurium was confirmed on Mueller-Hinton agar (BD Difco, Detroit, MA) plates with antibiotic discs (Thermo Fisher Scientific, Waltham, MA) and compared to Escherichia coli (TOP10) and S. Typhimurium XEN-33 (Table 3).

[1] = tested on: MDR S. Typhimurium (ATCC700408); assay type: cell-based, Salmonella enterica serovar Typhimurium
Experimental: as §1, with “ATCC.” for “ATCC. Susceptible and MDR activity of S. Typhimurium was confirmed on Mueller-Hinton agar (BD Difco, Detroit, MA) plates with antibiotic discs (Thermo Fisher Scientific, Waltham, MA) and compared to Escherichia coli (TOP10) and S. Typhimurium XEN-33 (Table 3).”

[2] = tested on: Susc. S. Typhimurium (ATCC700720); assay type: cell-based, Salmonella enterica serovar Typhimurium
Experimental: as §1, with “ATCC.” for “ATCC. Susceptible and MDR activity of S. Typhimurium was confirmed on Mueller-Hinton agar (BD Difco, Detroit, MA) plates with antibiotic discs (Thermo Fisher Scientific, Waltham, MA) and compared to Escherichia coli (TOP10) and S. Typhimurium XEN-33 (Table 3).”

S. Typhimurium (XEN-33) = assay type: cell-based, Salmonella enterica serovar Typhimurium

Molecule: CC1(C)S[C@@H]2[C@H](NC(=O)[C@H](N)c3ccccc3)C(=O)N2[C@H]1C(=O)O [Ampicillin]
- Disc inhibition zone (diameter) (E. coli (TOP10)): 17 mm
- Disc inhibition zone (diameter) [1]: 0 mm
- Disc inhibition zone (diameter) [2]: 19 mm
- Disc inhibition zone (diameter) (S. Typhimurium (XEN-33)): 18 mm

Molecule: CO/N=C(\C(=O)N[C@@H]1C(=O)N2C(C(=O)O)=C(CSc3nc(=O)c(O)nn3C)CS[C@H]12)c1csc(N)n1 [Ceftriaxo]
- Disc inhibition zone (diameter) (E. coli (TOP10)): 30 mm
- Disc inhibition zone (diameter) [1]: 28 mm
- Disc inhibition zone (diameter) [2]: 26 mm
- Disc inhibition zone (diameter) (S. Typhimurium (XEN-33)): 26 mm

Molecule: O=C(N[C@H](CO)[C@H](O)c1ccc([N+](=O)[O-])cc1)C(Cl)Cl [Chloramphenicol]
- Disc inhibition zone (diameter) (E. coli (TOP10)): 28 mm
- Disc inhibition zone (diameter) [1]: 0 mm
- Disc inhibition zone (diameter) [2]: 24 mm
- Disc inhibition zone (diameter) (S. Typhimurium (XEN-33)): 24 mm

Molecule: O=C(O)c1cn(C2CC2)c2cc(N3CCNCC3)c(F)cc2c1=O [Ciprofloxacin]
- Disc inhibition zone (diameter) (E. coli (TOP10)): 37 mm
- Disc inhibition zone (diameter) [1]: 30 mm
- Disc inhibition zone (diameter) [2]: 30 mm
- Disc inhibition zone (diameter) (S. Typhimurium (XEN-33)): 25 mm

Molecule: CNC(C)C1CCC(N)C(OC2C(N)CC(N)C(OC3OCC(C)(O)C(NC)C3O)C2O)O1 (centres unmarked) [Gentamicin]
- Disc inhibition zone (diameter) (E. coli (TOP10)): 17 mm
- Disc inhibition zone (diameter) [1]: 18 mm
- Disc inhibition zone (diameter) [2]: 17 mm
- Disc inhibition zone (diameter) (S. Typhimurium (XEN-33)): 18 mm

Molecule: NC[C@H]1O[C@H](O[C@H]2[C@H](O)[C@@H](O[C@H]3O[C@H](CO)[C@@H](O)[C@H](N)[C@H]3O)[C@H](N)C[C@@H]2N)[C@H](O)[C@@H](O)[C@@H]1O [Kanamycin]
- Disc inhibition zone (diameter) (E. coli (TOP10)): 20 mm
- Disc inhibition zone (diameter) [1]: 17 mm
- Disc inhibition zone (diameter) [2]: 17 mm
- Disc inhibition zone (diameter) (S. Typhimurium (XEN-33)): 0 mm

Molecule: C[C@H]1COc2c(N3CCN(C)CC3)c(F)cc3c(=O)c(C(=O)O)cn1c23 [Levofloxacin]
- Disc inhibition zone (diameter) (E. coli (TOP10)): 34 mm
- Disc inhibition zone (diameter) [1]: 32 mm
- Disc inhibition zone (diameter) [2]: 32 mm
- Disc inhibition zone (diameter) (S. Typhimurium (XEN-33)): 27 mm

Molecule: CCn1cc(C(=O)O)c(=O)c2ccc(C)nc21 [Nalidixic Acid]
- Disc inhibition zone (diameter) (E. coli (TOP10)): 30 mm
- Disc inhibition zone (diameter) [1]: 21 mm
- Disc inhibition zone (diameter) [2]: 21 mm
- Disc inhibition zone (diameter) (S. Typhimurium (XEN-33)): 20 mm

Molecule: [H]/N=C(/N)N[C@H]1[C@H](O)[C@@H](O)[C@H](O[C@@H]2O[C@@H](C)[C@](O)(C=O)[C@H]2O[C@@H]2O[C@@H](CO)[C@H](O)[C@@H](O)[C@@H]2NC)[C@@H](N/C(N)=N\[H])[C@@H]1O [Streptomycin]
- Disc inhibition zone (diameter) (E. coli (TOP10)): 0 mm
- Disc inhibition zone (diameter) [1]: 0 mm
- Disc inhibition zone (diameter) [2]: 12 mm
- Disc inhibition zone (diameter) (S. Typhimurium (XEN-33)): 13 mm

Molecule: CN(C)[C@@H]1C(O)=C(C(N)=O)C(=O)[C@@]2(O)C(O)=C3C(=O)c4c(O)cccc4[C@@](C)(O)[C@H]3C[C@@H]12 [Tetracycline]
- Disc inhibition zone (diameter) (E. coli (TOP10)): 24 mm
- Disc inhibition zone (diameter) [1]: 13 mm
- Disc inhibition zone (diameter) [2]: 22 mm
- Disc inhibition zone (diameter) (S. Typhimurium (XEN-33)): 0 mm

Molecule: Cotrimoxazole
- Disc inhibition zone (diameter) (E. coli (TOP10)): 29 mm
- Disc inhibition zone (diameter) [1]: 24 mm
- Disc inhibition zone (diameter) [2]: 25 mm
- Disc inhibition zone (diameter) (S. Typhimurium (XEN-33)): 0 mm
